Values quoted from earlier work as cited in US20120252862A1, “Dissolvable Film Strip Comprising Natural Components” (YEDITEPE UNIVERSITES, priority 2009, published 2012).

Conditions: single oral dose

Compound: O=C(O[C@@H]1Cc2c(O)cc(O)cc2O[C@@H]1c1cc(O)c(O)c(O)c1)c1cc(O)c(O)c(O)c1 [EGCG, epigallocatechin gallate]
- Dose reported safe to be applied: up to 1600 mg
